Results: ChEMBL document CHEMBL3769328, “Design and optimization of tricyclic gamma-secretase modulators” (Bioorg Med Chem Lett, 2016)
Calls of active or inactive are those of the source. The calls are words filed in the database; no cut-off is given here.

Key:
Gamma-secretase [1] = test: Modulation of gamma secretase in human H4 cells assessed as inhibition of amyloid beta (1 to 42) production; assay type: cell-based
Gamma-secretase [2] = test: Modulation of gamma secretase in human H4 cells transfected with APP751 SWE clone 8.20 mutant assessed as inhibition of amyloid beta (1 to 42) production after 19 hrs; assay type: cell-based
Cytochrome P450 3A4 = Cytochrome P450 3A4 (Homo sapiens, UniProt P08684); test: Inhibition of CYP3A4 (unknown origin) by fluorescence assay
Mus musculus [3] = organism: Mus musculus; conditions: Brain, 30 mg/kg
[4] = target: Voltage-gated inwardly rectifying potassium channel KCNH2 (Homo sapiens, UniProt Q12809); test: Inhibition of human ERG by thallium flux assay
Liver microsome = test: Drug metabolism in human liver microsomes; assay type: ADME
[5] = Plasma protein binding in human; assay type: ADME, cell-free; conditions: read-out: PPB
[6] = Plasma protein binding in mouse; assay type: ADME, cell-free; conditions: read-out: PPB
[7] = Plasma concentration in 3x transgenic Alzheimer's disease mouse model at 1 mg/kg, po measured after 3 hrs; assay type: ADME, organism-based; conditions: 3x transgenic Alzheimer's disease model
[8] = Plasma concentration in 3x transgenic Alzheimer's disease mouse model at 3 mg/kg, po measured after 3 hrs; assay type: ADME, organism-based; conditions: 3x transgenic Alzheimer's disease model
[9] = Plasma concentration in 3x transgenic Alzheimer's disease mouse model at 10 mg/kg, po measured after 3 hrs; assay type: ADME, organism-based; conditions: 3x transgenic Alzheimer's disease model
[10] = Plasma concentration in 3x transgenic Alzheimer's disease mouse model at 30 mg/kg, po measured after 3 hrs; assay type: ADME, organism-based; conditions: 3x transgenic Alzheimer's disease model
[11] = Plasma concentration in 3x transgenic Alzheimer's disease mouse model at 100 mg/kg, po measured after 3 hrs; assay type: ADME, organism-based; conditions: 3x transgenic Alzheimer's disease model
[12] = Total drug level in 3x transgenic Alzheimer's disease mouse brain at 30 mg/kg, po measured after 3 hrs; assay type: ADME, organism-based; conditions: 3x transgenic Alzheimer's disease model, read-out: Drug uptake
Mus musculus [13] = test: Effect on total amyloid beta production in 3x transgenic mouse model of Alzheimer's disease at 1 to 100 mg/kg, po measured after 3 hrs by ELISA; assay type: ADME, organism-based; conditions: in vivo
[14] = Ratio of total drug level in brain to plasma in 3x transgenic mouse model of Alzheimer's disease at 30 mg/kg, po measured after 3 hrs; assay type: ADME, organism-based; conditions: 3x transgenic Alzheimer's disease model, read-out: BPR
Mus musculus [15] = test: Anti-alzheimer activity in 3x transgenic mouse model of Alzheimer's disease assessed as amyloid beta (1 to 42) level in brain at 1 mg/kg, po measured after 3 hrs by ELISA relative to control; assay type: functional
Mus musculus [16] = test: Anti-alzheimer activity in 3x transgenic mouse model of Alzheimer's disease assessed as amyloid beta (1 to 42) level in brain at 3 mg/kg, po measured after 3 hrs by ELISA relative to control; assay type: functional
Mus musculus [17] = test: Anti-alzheimer activity in 3x transgenic mouse model of Alzheimer's disease assessed as amyloid beta (1 to 42) level in brain at 10 mg/kg, po measured after 3 hrs by ELISA relative to control; assay type: functional
Mus musculus [18] = test: Anti-alzheimer activity in 3x transgenic mouse model of Alzheimer's disease assessed as amyloid beta (1 to 42) level in brain at 30 mg/kg, po measured after 3 hrs by ELISA relative to control; assay type: functional
Mus musculus [19] = test: Anti-alzheimer activity in 3x transgenic mouse model of Alzheimer's disease assessed as amyloid beta (1 to 42) level in brain at 100 mg/kg, po measured after 3 hrs by ELISA relative to control; assay type: functional

Cytochrome P450 3A4, sequence (P08684 whole entry): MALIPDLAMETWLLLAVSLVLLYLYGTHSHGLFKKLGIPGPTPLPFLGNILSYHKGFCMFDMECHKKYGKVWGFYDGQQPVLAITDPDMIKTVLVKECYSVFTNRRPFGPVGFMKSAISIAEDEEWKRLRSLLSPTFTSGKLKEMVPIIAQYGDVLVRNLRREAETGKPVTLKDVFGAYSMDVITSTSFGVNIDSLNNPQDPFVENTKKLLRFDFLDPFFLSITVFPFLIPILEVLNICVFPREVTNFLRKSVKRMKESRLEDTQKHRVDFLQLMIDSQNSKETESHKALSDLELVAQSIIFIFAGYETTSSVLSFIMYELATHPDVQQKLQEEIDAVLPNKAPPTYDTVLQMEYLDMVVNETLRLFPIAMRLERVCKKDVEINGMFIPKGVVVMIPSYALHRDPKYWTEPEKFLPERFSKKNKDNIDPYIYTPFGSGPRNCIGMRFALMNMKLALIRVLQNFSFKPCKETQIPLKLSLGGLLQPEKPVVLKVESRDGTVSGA
Voltage-gated inwardly rectifying potassium channel KCNH2, sequence (Q12809 whole entry): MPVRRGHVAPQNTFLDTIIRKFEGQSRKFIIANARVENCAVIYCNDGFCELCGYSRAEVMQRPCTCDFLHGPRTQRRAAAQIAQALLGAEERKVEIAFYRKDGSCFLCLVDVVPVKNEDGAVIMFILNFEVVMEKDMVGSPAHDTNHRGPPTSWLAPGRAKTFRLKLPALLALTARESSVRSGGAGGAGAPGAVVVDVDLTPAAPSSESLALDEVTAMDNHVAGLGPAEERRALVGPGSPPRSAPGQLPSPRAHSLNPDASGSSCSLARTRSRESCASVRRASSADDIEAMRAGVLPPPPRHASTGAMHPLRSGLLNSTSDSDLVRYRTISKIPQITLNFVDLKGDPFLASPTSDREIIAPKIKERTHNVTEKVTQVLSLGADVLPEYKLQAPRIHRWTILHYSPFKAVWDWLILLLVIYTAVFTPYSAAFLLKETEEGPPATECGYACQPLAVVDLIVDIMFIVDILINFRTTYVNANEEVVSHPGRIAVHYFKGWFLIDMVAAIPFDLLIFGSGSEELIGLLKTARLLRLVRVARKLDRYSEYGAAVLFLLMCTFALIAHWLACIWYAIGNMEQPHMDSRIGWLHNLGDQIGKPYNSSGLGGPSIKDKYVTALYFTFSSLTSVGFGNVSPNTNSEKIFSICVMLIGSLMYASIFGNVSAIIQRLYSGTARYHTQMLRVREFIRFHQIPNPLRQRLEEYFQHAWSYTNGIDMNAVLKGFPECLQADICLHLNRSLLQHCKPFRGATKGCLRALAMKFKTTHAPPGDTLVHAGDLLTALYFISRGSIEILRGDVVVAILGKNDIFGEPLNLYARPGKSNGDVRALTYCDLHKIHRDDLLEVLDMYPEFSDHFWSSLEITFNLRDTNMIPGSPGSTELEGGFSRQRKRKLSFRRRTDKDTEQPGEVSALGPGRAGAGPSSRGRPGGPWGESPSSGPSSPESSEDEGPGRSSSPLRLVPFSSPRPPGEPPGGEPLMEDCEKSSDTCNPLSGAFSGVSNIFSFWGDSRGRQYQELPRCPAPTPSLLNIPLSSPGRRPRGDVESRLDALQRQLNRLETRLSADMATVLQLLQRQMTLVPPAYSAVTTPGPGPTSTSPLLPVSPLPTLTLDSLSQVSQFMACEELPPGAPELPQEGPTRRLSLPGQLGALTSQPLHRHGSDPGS

| Compound | IC50 (Gamma-secretase [1]; read-out: IC50) | IC50 (Cytochrome P450 3A4) | further results |
| --- | --- | --- | --- |
| COc1ccc(Cc2nc3c(n2C)CCc2cc(-n4cnc(C)c4)ccc2C3=O)cc1 | 1100 nM | – | – |
| CNc1nc(Cc2ccccc2)nc(Nc2ccc(-n3cnc(C)c3)c(OC)c2)n1 | – | – | IC50 (Gamma-secretase [2]): 29 nM |
| Cc1cn(-c2ccc3c(c2)CCc2ccc(Cc4ccc(F)cc4)nc2C3=O)cn1 | 1000 nM | 300 nM | – |
| COc1ccc(Cc2nc3c(o2)CCc2cc(-c4ccnc(C)c4)ccc2C3=O)cc1 | 300 nM | 300 nM | – |
| Cc1ncn(-c2ccc3c(c2)CCc2cn(Cc4ccccc4)nc2N3)n1 | 180 nM | 300 nM | – |
| Clc1cn(-c2ccc3c(c2)CCc2cnn(Cc4ccccc4)c2N3)cn1 | – | – | IC50 (Gamma-secretase [1]): Not Active |
| Cc1cn(-c2cc3c(cc2F)Nc2nc(Cc4ccccc4)ccc2C(=O)N3)cn1 | 820 nM | 30 nM | – |
| COc1ccc(Cc2nc3c(n2C)CCc2cc(-c4ccnc(C)c4)ccc2C3=O)cc1 | 380 nM | 300 nM | – |
| Cc1cncn1-c1ccc2c(c1)CCc1sc(Cc3ccc(F)cc3)nc1N2 | 1800 nM | – | – |
| CNc1nc(Nc2ccc(-n3cncn3)c(OC)c2)nc(-c2ccccc2)n1 | – | – | IC50 (Gamma-secretase [2]): 180 nM |
| Cc1ncn(-c2ccc3c(c2)CCc2sc(Cc4ccccc4)nc2N3)n1 | 140 nM | – | – |
| N#Cc1ccc2c(c1)CCc1sc(Cc3ccccc3)nc1N2 | 1200 nM | – | – |
| Cc1ncn(-c2ccc3c(c2)NC(=O)c2ccc(Cc4ccccc4)nc2N3)n1 | 460 nM | 2000 nM | – |
| O=C1Nc2cc(-n3cnc(Cl)c3)ccc2Nc2nc(Cc3ccccc3)ccc21 | 190 nM | > 13000 nM | – |
| CC(c1ccccc1)c1ccc2c(n1)Nc1ccc(-n3cnc(Cl)c3)cc1NC2=O (racemic) | 200 nM | > 13000 nM | – |
| Cc1ncn(-c2ccc3c(c2)CCc2cnn(Cc4ccccc4)c2N3)n1 | – | – | IC50 (Gamma-secretase [1]): Not Active |

Continued by falling IC50 (Gamma-secretase [1]; read-out: IC50), values first:

| IC50 (Gamma-secretase [1]; read-out: IC50) | IC50 (Cytochrome P450 3A4) | Compound | further results |
| --- | --- | --- | --- |
| 140 nM | – | Clc1cn(-c2ccc3c(c2)CCc2sc(Cc4ccccc4)nc2N3)cn1 | – |
| 120 nM | – | Cc1cc(-c2ccc3c(c2)CCc2sc(Cc4ccc(F)c(F)c4)nc2N3)ccn1 | – |
| 100 nM | 200 nM | Cc1cn(-c2ccc3c(c2)NC(=O)c2ccc(C(C)c4ccccc4)nc2N3)cn1 (racemic) | – |
| 80 nM | – | Cc1cc(-c2ccc3c(c2)CCc2sc(Cc4ccc(F)cc4)nc2N3)ccn1 | – |
| 50 nM | 150 nM | Cc1cn(-c2ccc3c(c2)NC(=O)c2ccc(Cc4ccccc4)nc2N3)cn1 | inhibition (Mus musculus [3]): inactive |
| 50 nM | – | Cc1cc(-c2ccc3c(c2)CCc2sc(Cc4ccccc4)nc2N3)ccn1 | – |
| 40 nM | 300 nM | Clc1cn(-c2ccc3c(c2)CCc2cn(Cc4ccccc4)nc2N3)cn1 | – |
| 35 nM | 700 nM | Cc1cn(-c2ccc3c(c2)CCc2sc(Cc4ccccc4)nc2N3)cn1 | inhibition (INH) [4]: Not Active; Drug metabolism (Liver microsome): 0.035 nmol/min/mg; fraction unbound [5]: < 0.002; fraction unbound [6]: < 0.002; concentration at 3 h [7]: 0.21 µM; concentration at 3 h [8]: 0.48 µM; concentration at 3 h [9]: 3.8 µM; concentration at 3 h [10]: 8 µM; concentration at 3 h [11]: 25 µM; concentration at 3 h [12]: 8.9 µM; Activity (Mus musculus [13]): Non-toxic; Kp at 3 h [14]: 1.1; Activity (Mus musculus [15]): 110%; Activity (Mus musculus [16]): 100%; Activity (Mus musculus [17]): 70%; Activity (Mus musculus [18]): 60%; Activity (Mus musculus [19]): 50% |
| 20 nM | – | Cc1cn(-c2ccc3c(c2)CCc2sc(Cc4ccc(F)cc4)nc2N3)cn1 | – |
